The values below are quoted from earlier work in patent US6878522B2, “Methods for the identification of compounds useful for the treatment of disease states mediated by prostaglandin D2” (priority 2000, dated 2005).

The target of this data set is T1, TP receptor (Homo sapiens, UniProt P21731).
T1 sequence (P21731 1-343): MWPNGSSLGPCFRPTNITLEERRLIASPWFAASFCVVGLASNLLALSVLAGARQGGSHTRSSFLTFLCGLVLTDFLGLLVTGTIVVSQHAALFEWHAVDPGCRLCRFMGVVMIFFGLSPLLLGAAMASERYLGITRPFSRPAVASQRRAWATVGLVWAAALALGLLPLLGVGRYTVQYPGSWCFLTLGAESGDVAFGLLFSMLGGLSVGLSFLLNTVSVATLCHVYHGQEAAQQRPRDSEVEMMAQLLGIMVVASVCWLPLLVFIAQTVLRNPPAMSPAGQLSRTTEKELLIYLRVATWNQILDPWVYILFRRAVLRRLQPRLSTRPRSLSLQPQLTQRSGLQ
To be noted: cited from earlier work.

Consider `CCCCC[C@H](O)/C=C/[C@H]1C(=O)C[C@H](O)[C@@H]1C/C=C\CCCC(=O)O` [PGD2, prostaglandin D2], for which the Ki (in general, the equilibrium dissociation constant of an inhibitor or competing ligand from its target) is 75 µM.
